Assay results as given in patent US8771644B2, “Imaging probes” (Sanofi, priority 2007, dated 2014).

Target: Cath X (Homo sapiens, UniProt Q9UBR2)
Assay: in vitro activity assay (fluorescence, substrate cleavage) with Cath X
Type: biochemical
Details: measurement performed at pH 5.5
Description: […] The substrates were solved in DMSO and added to enzyme solution with a final concentration of 50 μM.
Fluorescence was measured with an Tecan SAFIRE II spectrometer (excitation wavelength: 336 nm; emission wavelength: 490 nm; excitation band: 10.0 nm; emission band: 10.0 nm; amplification (manual): 90).

Sequence of Cath X (Q9UBR2 62-303): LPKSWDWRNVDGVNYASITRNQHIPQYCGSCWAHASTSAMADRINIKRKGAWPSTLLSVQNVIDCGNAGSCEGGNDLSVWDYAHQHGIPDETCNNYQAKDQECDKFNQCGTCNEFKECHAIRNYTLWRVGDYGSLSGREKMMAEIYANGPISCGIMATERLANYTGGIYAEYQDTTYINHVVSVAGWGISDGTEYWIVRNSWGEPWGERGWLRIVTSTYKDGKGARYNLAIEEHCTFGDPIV

`CN(C)c1ccc2c(c1)Oc1cc(N(C)C)ccc1C21OC(=O)c2cc(C(=O)NCC[C@H](NC(=O)[C@H](CC3CCCCC3)NC(=O)N3CCOCC3)C(=O)NCCNC(=O)c3ccc(-c4c5ccc(=O)cc-5oc5cc(O)ccc45)c(C(=O)O)c3)ccc21` [Example 10] gave a Kcat of 287.4 s⁻¹ and a Vmax of 7997 nmol/s.
